Values quoted from earlier work, collected in PubChem BioAssay AID1259409 (Chemical Carcinogenesis Research Information System (CCRIS), 2018).

Tested on: rodent chemically induced tumor inhibition, incidence and multiplicity
Experiment: CCRIS tumor inhibitor studies

CC1=C(/C=C/C(C)=C/C=C/C(C)=C/C=C/C=C(C)/C=C/C=C(C)/C=C/C2=C(C)CCCC2(C)C)C(C)(C)CCC1
tumour outcome (control, treated, inhibition, significance) (Carcinogen: 1,2-DIMETHYLHYDRAZINE, 540-73-8, Dose [Inhibitor]: 0, 0.005% IN DIET FOR 14 WK BEGINNING 3 D PRIOR TO CARCINOGEN TREATMENT (STUDY DURATION: 26 WK), Route [Inhibitor]: ORAL, Species: RAT, Strain/Sex: SPRAGUE-DAWLEY/MALE, Target Tissue: Type of Lesion: INTESTINE: CARCINOMA, Dose [Carcinogen]: 20 MG/KG BW 1/WK FOR 12 WK, Promoter: NONE USED): 23/28 (82%), 11/20 (55%), 33%, p<0.05 | tumour outcome (control, treated, inhibition, significance) (Carcinogen: 4-(METHYLNITROSAMINO)-1-(3-PYRIDYL)-1-BUTANONE [64091-50-5], Dose [Inhibitor]: 16 MG/KG SC 2X/WK FOR 16 WK BEGINNING 1 WK PRIOR TO FIRST CARCINOGEN DOSE (STUDY DURATION: 16 WK), Route [Inhibitor]: SUBCUTANEOUS, Species: MOUSE, Strain/Sex: A/J/FEMALE, Target Tissue: Type of Lesion: LUNG: ADENOMA OR ADENOCARCINOMA, Dose [Carcinogen]: 10 UMOL ONCE 1 WK POST FIRST INHIBITOR DOSE (STUDY DURATION: 16 WK), Promoter: NONE): 100%, 100%, 0%, not significant | tumour outcome (control, treated, inhibition, significance) (Carcinogen: 4-(METHYLNITROSAMINO)-1-(3-PYRIDYL)-1-BUTANONE [64091-50-5], Dose [Inhibitor]: 32 MG/KG SC 2X/WK FOR 17 WK BEGINNING 1 WK PRIOR TO FIRST CARCINOGEN DOSE (STUDY DURATION: 17 WK), Route [Inhibitor]: SUBCUTANEOUS, Species: MOUSE, Strain/Sex: A/J/FEMALE, Target Tissue: Type of Lesion: LUNG: ADENOMA, Dose [Carcinogen]: 10 UMOL ONCE 1 WK POST FIRST INHIBITOR DOSE (STUDY DURATION: 17 WK), Promoter: NONE): 100%, 100%, 0%, not significant | tumour outcome (control, treated, inhibition, significance) (Carcinogen: 4-(METHYLNITROSAMINO)-1-(3-PYRIDYL)-1-BUTANONE [64091-50-5], Dose [Inhibitor]: 32 MG/KG SC 2X/WK FOR 53 WK BEGINNING 1 WK PRIOR TO FIRST CARCINOGEN DOSE (STUDY DURATION: 53 WK), Route [Inhibitor]: SUBCUTANEOUS, Species: MOUSE, Strain/Sex: A/J/FEMALE, Target Tissue: Type of Lesion: LUNG: ADENOMA OR ADENOCARCINOMA, Dose [Carcinogen]: 10 UMOL ONCE 1 WK POST FIRST INHIBITOR DOSE (STUDY DURATION: 53 WK), Promoter: NONE): 100%, 100%, 0%, not significant | tumour outcome (control, treated, inhibition, significance) (Carcinogen: 4-NITROQUINOLINE-1-OXIDE, 56-57-5, Dose [Inhibitor]: 0, 0.05% IN DRINKING WATER AD LIBITUM (STUDY DURATION: 30 WK), Route [Inhibitor]: ORAL, Species: MOUSE, Strain/Sex: DDY/MALE, Target Tissue: Type of Lesion: LUNG: TUMOR, Dose [Carcinogen]: 10 MG/KG BW IN OLIVE OIL/CHOLESTEROL (20:1) ONCE, Promoter: GLYCEROL, 56-81-5): 94%, 93%, 1%, not significant | tumour outcome (control, treated, inhibition, significance) (Carcinogen: 4-NITROQUINOLINE-1-OXIDE, 56-57-5, Dose [Inhibitor]: 0, 0.05% IN DRINKING WATER BEGINNING 5 WK POST CARCINOGEN TREATMENT AND CONTINUING FOR 25 WK (STUDY DURATION: 30 WK), Route [Inhibitor]: ORAL, Species: MOUSE, Strain/Sex: DDY/MALE, Target Tissue: Type of Lesion: LUNG: TUMORS, Dose [Carcinogen]: 10 MG/KG BW IN OLIVE OIL AND CHOLESTEROL (20:1) ONCE, Promoter: NONE USED): 94%, 93%, 1%, not significant | tumour outcome (control, treated, inhibition, significance) (Carcinogen: 4-NITROQUINOLINE-1-OXIDE, 56-57-5, Dose [Inhibitor]: 0, 500 PPM IN DIET FOR 10 WK BEGINNING 1 WK PRIOR TO CARCINOGEN TREATMENT (STUDY DURATION: 32 WK), Route [Inhibitor]: ORAL, Species: RAT, Strain/Sex: F344/MALE, Target Tissue: Type of Lesion: TONGUE: CARCINOMA, Dose [Carcinogen]: 20 PPM IN DRINKING WATER FOR 8 WK, Promoter: NONE USED): 13/24 (54%), 3/17 (18%), 67%, p<0.05 | tumour outcome (control, treated, inhibition, significance) (Carcinogen: 4-NITROQUINOLINE-1-OXIDE, 56-57-5, Dose [Inhibitor]: 0, 500 PPM IN DIET FOR 10 WK BEGINNING 1 WK PRIOR TO CARCINOGEN TREATMENT (STUDY DURATION: 32 WK), Route [Inhibitor]: ORAL, Species: RAT, Strain/Sex: F344/MALE, Target Tissue: Type of Lesion: TONGUE: PAPILLOMA, Dose [Carcinogen]: 20 PPM IN DRINKING WATER FOR 8 WK, Promoter: NONE USED): 4/24 (17%), 2/17 (12%), 29%, not significant | tumour outcome (control, treated, inhibition, significance) (Carcinogen: 4-NITROQUINOLINE-1-OXIDE, 56-57-5, Dose [Inhibitor]: 0, 500 PPM IN DIET FOR 22 WK BEGINNING 1 WK POST CARCINOGEN TREATMENT (STUDY DURATION: 32 WK), Route [Inhibitor]: ORAL, Species: RAT, Strain/Sex: F344/MALE, Target Tissue: Type of Lesion: TONGUE: CARCINOMA, Dose [Carcinogen]: 20 PPM IN DRINKING WATER FOR 8 WK, Promoter: NONE USED): 13/24 (54%), 4/17 (24%), 56%, p<0.05 | tumour outcome (control, treated, inhibition, significance) (Carcinogen: 4-NITROQUINOLINE-1-OXIDE, 56-57-5, Dose [Inhibitor]: 0, 500 PPM IN DIET FOR 22 WK BEGINNING 1 WK POST CARCINOGEN TREATMENT (STUDY DURATION: 32 WK), Route [Inhibitor]: ORAL, Species: RAT, Strain/Sex: F344/MALE, Target Tissue: Type of Lesion: TONGUE: PAPILLOMA, Dose [Carcinogen]: 20 PPM IN DRINKING WATER FOR 8 WK, Promoter: NONE USED): 4/24 (17%), 2/17 (12%), 29%, not significant | tumour outcome (control, treated, inhibition, significance) (Carcinogen: 7,12-DIMETHYLBENZ[A]ANTHRACENE, 57-97-6, Dose [Inhibitor]: 0, 0.05% IN DRINKING WATER AD LIBITUM FOR 30 WK BEGINNING 1 WK POST CARCINOGEN DOSE (STUDY DURATION: 31 WK), Route [Inhibitor]: ORAL, Species: MOUSE, Strain/Sex: ICR/FEMALE, Target Tissue: Type of Lesion: SKIN: TUMOR, Dose [Carcinogen]: 100 UG ONCE, Promoter: 12-O-TETRADECANOYLPHORBOL-13-ACETATE, 16561-29-8): 13/16 (81%), 8/16 (50%), 38%, not significant | tumour outcome (control, treated, inhibition, significance) (Carcinogen: 7,12-DIMETHYLBENZ[A]ANTHRACENE, 57-97-6, Dose [Inhibitor]: 0, 200 NMOL IN 200 µL ACETONE 2/WK BEGINNING 1 WK POST CARCINOGEN DOSE APPLIED SIMULTANEOUSLY WITH PROMOTER FOR 20 WK (S, Route [Inhibitor]: DERMAL, Species: MOUSE, Strain/Sex: ICR/?, Target Tissue: Type of Lesion: SKIN: PAPILLOMA, Dose [Carcinogen]: 100 UG ONCE, Promoter: 12-O-TETRADECANOYLPHORBOL-13-ACETATE, 16561-29-8): 69%, 31%, 55%, not calculated | tumour outcome (control, treated, inhibition, significance) (Carcinogen: 7,12-DIMETHYLBENZ[A]ANTHRACENE, 57-97-6, Dose [Inhibitor]: 0, 200 NMOL IN 200 µL ACETONE 2/WK FOR 40 WK APPLIED SIMULTANEOUSLY WITH PROMOTER BEGINNING 1 WK POST CARCINOGEN DOSE (S, Route [Inhibitor]: DERMAL, Species: MOUSE, Strain/Sex: ICR/FEMALE, Target Tissue: Type of Lesion: SKIN: TUMOR, Dose [Carcinogen]: 100 UG ONCE, Promoter: 12-O-TETRADECANOYLPHORBOL-13-ACETATE, 16561-29-8): 10/15 (67%), 8/15 (53%), 21%, not significant | tumour outcome (control, treated, inhibition, significance) (Carcinogen: 7,12-DIMETHYLBENZ[A]ANTHRACENE, 57-97-6, Dose [Inhibitor]: 0, 200 NMOL PALM CAROTENE FOR 22 WK BEGINNING 1 WK POST CARCINOGEN DOSE (STUDY DURATION: 40 WK), Route [Inhibitor]: DERMAL, Species: MOUSE, Strain/Sex: ICR/FEMALE, Target Tissue: Type of Lesion: SKIN: TUMOR, Dose [Carcinogen]: 100 UG ONCE, Promoter: GLYCOCHOLIC ACID, 475-31-0, MEZEREIN, 34807-41-5, Promoter: GLYCOCHOLIC ACID, 475-31-0, MEZEREIN, 34807-41-5): 26%, 0%, 100%, not calculated | tumour outcome (control, treated, inhibition, significance) (Carcinogen: 7,12-DIMETHYLBENZ[A]ANTHRACENE, 57-97-6, Dose [Inhibitor]: 0, 250 MG SUSPENDED IN LIQUID PARAFFIN APPLIED TO EACH CHEEK POUCH 2/WK BEGINNING 15 D POST LAST CARCINOGEN DOSE AND CON, Route [Inhibitor]: DERMAL, Species: HAMSTER, Strain/Sex: SYRIAN/MALE, Target Tissue: Type of Lesion: CHEEK POUCH: TUMOR, Dose [Carcinogen]: 0.125 MG (0.25% LIQUID PARAFFIN SOLUTION) APPLIED TO EACH CHEEK POUCH FOR 1 MO, Promoter: NONE USED): 10/15 (67%), 0/20 (0%), 100%, not calculated | tumour outcome (control, treated, inhibition, significance) (Carcinogen: 7,12-DIMETHYLBENZ[A]ANTHRACENE, 57-97-6, Dose [Inhibitor]: 0, 250 MG SUSPENDED IN LIQUID PARAFFIN APPLIED TO EACH CHEEK POUCH 2/WK BEGINNING 15 D POST LAST CARCINOGEN DOSE AND CON, Route [Inhibitor]: DERMAL, Species: HAMSTER, Strain/Sex: SYRIAN/MALE, Target Tissue: Type of Lesion: STOMACH: TUMOR, Dose [Carcinogen]: 0.125 MG (0.25% LIQUID PARAFFIN IN SOLUTION) APPLIED TO EACH CHEEK POUCH 2/WK FOR 1 MO, Promoter: NONE USED): 15/15 (100%), 0/20 (0%), 100%, not calculated | tumour outcome (control, treated, inhibition, significance) (Carcinogen: 7,12-DIMETHYLBENZ[A]ANTHRACENE, 57-97-6, Dose [Inhibitor]: 0, 290 IU/KG IN 100 µL PEANUT OIL 5 D/WK BEGINNING 1 WK POST CARCINOGEN DOSE AND CONTINUING FOR DURATION OF STUDY (STUDY, Route [Inhibitor]: GAVAGE, Species: MOUSE, Strain/Sex: HRA/SKH/FEMALE, Target Tissue: Type of Lesion: SKIN: CARCINOMA, Dose [Carcinogen]: 10 NMOL IN 50 µL ACETONE ONCE): 7/25 (28%), 7/38 (18%), 36%, not calculated | outcome (Carcinogen: 7,12-DIMETHYLBENZ[A]ANTHRACENE, 57-97-6, Dose [Inhibitor]: 0, 290 IU/KG IN 100 µL PEANUT OIL 5 D/WK BEGINNING 1 WK POST CARCINOGEN DOSE AND CONTINUING FOR DURATION OF STUDY (STUDY, Route [Inhibitor]: GAVAGE, Species: MOUSE, Strain/Sex: HRA/SKH/FEMALE, Target Tissue: Type of Lesion: SKIN: PAPILLOMA, Dose [Carcinogen]: 10 NMOL IN 50 µL ACETONE ONCE): 97%, 77%, 21%, not calculated at 20 wk; 68%, 50%, 27%, not calculated at 40 wk
